Test results published in patent US9944596B2, “Heterocyclic compound” (TAKEDA PHARMACEUTICAL COMPANY LIMITED, priority 2014, dated 2018).

What was measured:
RBP4 = biological target: T1, RBP4 (Mus musculus, UniProt Q00724); test: Blood RBP4-lowering action in C57BL/6J mouse (plasma RBP4 by ELISA); format: in vivo; conditions: male C57BL/6J mice, mean±SD, n=4 or 5; for RBP4 (initial value/control value %) 8 hr later: plasma 8 hr after administration
T1 construct: from tissue; host or cells: plasma of male C57BL/6J mice (Japan Charles River)
Procedure: The blood RBP4-lowering action of the compound of the present invention was evaluated using C57BL/6J mouse.
Male 7- to 10-week-old C57BL/6J mice (Japan Charles River) were acclimation reared under free food ingestion conditions on CE-2 solid feed (CLEA Japan, Inc.) for 4 to 6 days, and randomly grouped (4 or 5 per group). On the day of the test, blood samples were collected from the tail vein, and plasma was separated (0 hr value). Thereafter, a test compound (Example 1, 4, 5, 6 or 7) was orally administered at a dose of 5 mg/kg (solvent: 0.5% methylcellulose solution (10 mL/kg)). At 8 hr after the compound was administered, blood samples were collected from the tail vein and plasma was separated. Immediately after the blood samples were collected, the test compound was orally administered again at a dose of 5 mg/kg, and blood samples were collected again at 24 hr after the initial administration. In Examples 2, 3 and 8, the initial administration alone was performed at a dose of 10 mg/kg. The daily dose of all the test compounds was set to 10 mg/kg. A 0.5% methylcellulose solution (10 mL/kg) was orally administered to the control group.
The amount of RBP4 in the collected plasma was measured by the ELISA method. Using rabbit anti-mouse RBP4 polyclonal antibody (Hokudo Co., Ltd.), RBP4 was quantified by the following process. A 96 well ELISA plate was coated with 50 μg/mL antibody (100 μL), and stood at 4° C. overnight or at room temperature for 2 hr. After blocking with BlockAce (Dainippon Pharmaceutical Co., Ltd.), 100 μL of mouse RBP4 or sample was added and the plate was stood at room temperature for 2 hr, washed with PBS-0.5% Tween20, added with HRP-labeled anti-RBP4 antibody (prepared by labeling RBP4 polyclonal antibody (Hokudo Co., Ltd.) with HRP (DOJINDO LABORATORIES)) (100 μL), and stood at room temperature for 1 hr. After washing, TMB (Sigma) was added at room temperature for 20 min to allow for color development. The reaction was quenched with 2N sulfuric acid and the absorbance at A450 nm was measured by a platereader. Variation from the initial value of each individual was taken as the relative value to the control group (initial value/control value, %) at each time point. The results are shown below in mean±standard deviation (n=4 or 5).

human RBP4 = biological target: T2, human RBP4 (Homo sapiens, UniProt P02753); test: Binding assay by Retinol-RBP4-TTR ELISA; conditions: compound 10 μM; retinol 50 nM; His-tagged human RBP4, biotinylated human TTR; read-out: human RBP4 binding inhibitory activity (% at 10 μM)
T2 construct: the culture supernatant containing secreted hRBP4-His was recovered; made in house; host or cells: FreeStyle 293 expression system (Invitrogen)
Procedure: Using the Retinol-RBP4-TTR ELISA system shown below, the action of the compound of the present invention to inhibit the binding of RBP4 and retinol and TTR was evaluated.
1F: Binding Assay by Retinol-RBP4-TTR ELISA
This ELISA system detects a complex with RBP4 and TTR based on the retinol dependent binding of RBP4 to TTR.
The His-tagged human RBP4 used was prepared in the above-mentioned 1C.
The biotinylated human TTR used was prepared in the above-mentioned 1E.
Streptavidin (20 μl) (10 μg/ml Streptavidin type II (Wako Pure Chemical Industries, Ltd.), 10 mM Tris-HCl (pH 7.5), 10 mM NaCl) was added to a 384 well blackplate (Nunc MaxiSorp, Thermo Fisher Scientific Inc.), and the plate was centrifuged (1000 rpm, 1 min) and coated at 4° C. overnight. The plate was washed twice with PBST (PBS, 0.05% Tween 20, 100 μl/well), and blocked with 25% Block Ace (Snow Brand Milk Products Co., Ltd., PBS, 100 μl/well). The plate was subjected to centrifugation (1000 rpm, 1 min), and incubated at room temperature for 4 hr or 4° C. overnight. The plate was washed twice with PBST (PBS, 0.05% Tween 20, 100 μl/well), and biotinylated human TTR (stock solution concentration 1.0 mg/ml) diluted 750-fold with PBST was added at 20 μl/well. The plate was subjected to centrifugation (1000 rpm, 1 min), and further stood at room temperature for 1.5 hr or 4° C. overnight. The plate was washed 3 times with PBST (100 μl/well), and His-tagged human RBP4 (stock solution concentration 1.28 mg/ml) diluted 4000-fold with a reaction buffer (50 mM Tris-HCl, 150 mM NaCl, 0.005% Tween 20, 1 mM DTT, 0.1% BSA) was added at 10 μl/well. The dilution of the compound (200-fold concentration) was prepared with DMSO, and 1.6 μl each was added to a reaction buffer (320 μl) containing retinol (50 nM) (Sigma-Aldrich Co.). A reaction buffer (320 μl) containing retinol and added with DMSO was used as a positive control, and a reaction buffer (320 μl) not containing retinol and added with DMSO was used as a negative control. A mixed solution of retinol and the compound was added to the plate at 15 μl/well. The plate was stirred in a plate mixer, centrifuged (1000 rpm, 1 min), and reacted at room temperature for 2 hr. Anti-His HRP-conjugated antibody (QIAGEN) solution diluted with a reaction buffer was added […], centrifuged (1000 rpm, 1 min), and reacted at room temperature for 30 min. The plate was washed 3 times with PBST (100 μl/well), SuperSignal ELISA Femto Maximum Sensitivity Substrate reagent (PIERCE, Thermo Fisher Scientific Inc.) was added at 30 μl/well, and the luminescence was measured by a plate reader (Envision).
The binding inhibitory activity of the compound was determined by 100×(positive control value−test compound value)/(positive control value−negative control value).

A2E = test: Suppression of A2E accumulation in the eyeball of ABCA4 KO mouse (HPLC); format: in vivo; conditions: male ABCA4 KO mice, oral 5 mg/kg twice per day for 12 weeks, n=6
Procedure: The suppressive action for accumulation of retinoid metabolite bis-retinoid N-retinylidene-N-retinylethanolamine (A2E) in the eyeball, of the compound of the present invention, was evaluated using ATP-binding cassette A4 knockout (ABCA4 KO) mouse. A2E is the major constituent component of Lipofuscin in the eyeball, and is involved in the onset and pathology progression in atrophic age-related macular degeneration and Stargardt's disease. ABCA4 KO mouse was confirmed to show remarkable accumulation of A2E, Lipofuscin along with aging, and is known as an animal model of atrophic age-related macular degeneration and Stargardt's disease.
8-Week-old male ABCA4 KO mice were randomly grouped, and 0.5% methylcellulose solution was orally administered to the control group, and 0.5% methylcellulose suspension of a compound at a dose shown in the following Table was orally administered to the test compound group, each twice per day at 10 mL/kg. Each group contained 6 mice. After repetitive administration for 12 weeks, eyeball was isolated under anesthesia.
In the eyeball, A2E was measured by the HPLC method. A2E reference standard was synthesized from all-trans retinal, ethanolamine in acetic acid-added ethanol. […] Quantification was performed at ultraviolet absorbance at 440 nm by PDA.

[1] = oral 5 mg/kg at 0 hr and again at 8 hr (daily dose 10 mg/kg), plasma 24 hr after initial administration
[2] = oral 10 mg/kg initial administration alone
[3] = oral 10 mg/kg initial administration alone, plasma 24 hr after administration

| RBP4 (initial value/control value %) 24 hr later (RBP4; [1]) | RBP4 (initial value/control value %) 8 hr later (RBP4; oral 5 mg/kg) | inhibition at 10 µM (human RBP4) | RBP4 (initial value/control value %) 8 hr later (RBP4; [2]) | RBP4 (initial value/control value %) 24 hr later (RBP4; [3]) | SMILES | A2E (% of control value) (A2E) |
| --- | --- | --- | --- | --- | --- | --- |
| 53.72 ± 6.97% | 33.90 ± 6.60% | 100% |  |  | O=C(O)CC(=O)N1CCC(COc2ccccc2C2CCCC2)C1 (stereo not drawn) [Example 7, 3-(3-((2-cyclopentylphenoxy)methyl)pyrrolidin-1-yl)-3-oxopropanoic acid] |  |
| 56.02 ± 9.72% | 29.93 ± 6.80% | 100% |  |  | O=C(O)CC(=O)N1CC[C@H](COc2ccccc2C2CCCC2)C1 [Example 4, 3-((3S)-3-((2-cyclopentylphenoxy)methyl)pyrrolidin-1-yl)-3-oxopropanoic acid] | 53.94 ± 15.16% |
| 62.83 ± 4.70% | 32.30 ± 1.76% | 100% |  |  | O=C(O)CC(=O)N1CC[C@H](COc2ccccc2C2CCCCC2)C1 [Example 5, 3-((3S)-3-((2-cyclohexylphenoxy)methyl)pyrrolidin-1-yl)-3-oxopropanoic acid] |  |
| 41.90 ± 20.25% | 41.42 ± 13.96% | 100% |  |  | O=C(O)CC(=O)N1CC[C@@H](COc2ccccc2C2CCCC2)C1 [Example 6, 3-((3R)-3-((2-cyclopentylphenoxy)methyl)pyrrolidin-1-yl)-3-oxopropanoic acid] |  |

Continued, compound first:

| SMILES | RBP4 (initial value/control value %) 24 hr later (RBP4; [1]) | RBP4 (initial value/control value %) 8 hr later (RBP4; oral 5 mg/kg) | inhibition at 10 µM (human RBP4) | RBP4 (initial value/control value %) 8 hr later (RBP4; [2]) | RBP4 (initial value/control value %) 24 hr later (RBP4; [3]) | A2E (% of control value) (A2E) |
| --- | --- | --- | --- | --- | --- | --- |
| O=C(O)CC(=O)N1CC[C@H](COc2ccccc2C2CCC2)C1 [Example 3, 3-((3S)-3-((2-cyclobutylphenoxy)methyl)pyrrolidin-1-yl)-3-oxopropanoic acid] |  |  | 98% | 37.20 ± 3.71% | 95.57 ± 8.55% |  |
| O=C(O)CC(=O)N1CC[C@H](COc2ccccc2C2(C(F)(F)F)CC2)C1 [Example 1, 3-oxo-3-((3S)-3-((2-(1-(trifluoromethyl)cyclopropyl)phenoxy)methyl)pyrrolidin-1-yl)propanoic acid] | 28.49 ± 5.16% | 30.02 ± 6.85% | 100% |  |  |  |
| CC1(c2ccccc2OC[C@H]2CCN(C(=O)CC(=O)O)C2)CC1 [Example 2, 3-((3S)-3-((2-(1-methylcyclopropyl)phenoxy)methyl)pyrrolidin-1-yl)-3-oxopropanoic acid] |  |  | 98% | 11.82 ± 3.24% | 36.40 ± 12.19% |  |
| CCOC(=O)CC(=O)N1CC[C@H](COc2ccccc2C2(C(F)(F)F)CC2)C1 [Example 8, ethyl 3-oxo-3-((3S)-3-((2-(1-(trifluoromethyl)cyclopropyl)phenoxy)methyl)pyrrolidin-1-yl)propanoate] |  |  |  | 77.35 ± 7.08% | 92.76 ± 6.81% |  |
